Activity calls are given as the source filed them. No cut-off for these calls is given here.

One experiment concerns Rattus norvegicus. The experiment can be described thus: Prokinetic activity expressed as ability to increase intragastric pressure in rat on subcutaneous administration. Type of experiment: functional.
For experiment [1], the target named is Dopamine receptor (Rattus norvegicus) (UniProt P25115+P19020+P30729+P18901+P61169). In words: Dopamine receptor antagonist activity expressed as ability to inhibit apomorphine-induced climbing behavior in rat on subcutaneous administration. It is filed as functional, organism-based.
Experiment [2] can be described thus: Ratio of ability to inhibit apomorphine induced climbing to that of increasing intragastric pressure in rats. It is filed as functional.
A further experiment has as its system Canis familiaris. The experiment can be described thus: Compound was tested for inhibiting apomorphine-induced emesis in dog up to a dose of 10 mg/kg when administered subcutaneously; E - compound found effective. It is filed as functional, organism-based. Further details: dose 10 mg/kg. Conditions: Canis lupus familiaris.

The ED50 is the dose at which the effect has come halfway, by size or by number of responders. Read a high ED50 as a need for a large dose. Regarding `COc1cc(N)c(Cl)cc1C(=O)NC1CN2CCCCN2C1`, the Activity in the experiment on Rattus norvegicus stood at 0.5 mg/kg. This molecule also gave an ED50 in experiment [1] of 10 mg/kg. The Ratio in experiment [2] stood at 20.
In the same order, the values of `COc1cc(N)c(Cl)cc1C(=O)NC1CCN2CCCCN2C1` (stereo not drawn) are 1 mg/kg, 30 mg/kg and 30.
`COc1cc(N)c(Cl)cc1C(=O)NC1CN2CCC(c3ccccc3)CN2C1` (stereo not drawn) displayed an Activity in the experiment on Rattus norvegicus above 1 mg/kg. For the same molecule, the 50% effective dose (ED50) in experiment [1] is 5 mg/kg.
Molecule `COc1cc(N)c(Cl)cc1C(=O)NC1CN2Cc3ccccc3CN2C1` registered an Activity in the experiment on Rattus norvegicus above 1 mg/kg. The ED50 in experiment [1] amounted to 10 mg/kg.
In the same order, the values of `COc1cc(N)c(Cl)cc1C(=O)NC1CN2CC=CCN2C1` are above 1 mg/kg and above 50 mg/kg.
Take `COc1cc(N)c(Cl)cc1C(=O)NC1CCN2CCSCC2C1` (stereo not drawn): in the experiment on Canis familiaris, the result was Active. The molecule further showed an Activity with Rattus norvegicus of 1 mg/kg. In experiment [1], the 50% effective dose (ED50) was above 25 mg/kg.
In the experiment on Rattus norvegicus, `COc1cc(N)c(Cl)cc1C(=O)NC1CCN2C(C)COCC2C1` (stereo not drawn) gave an Activity of 0.2 mg/kg. In addition, the ED50 in experiment [1] came to 40 mg/kg. In addition, the Ratio in experiment [2] came out at 200.
As for `COc1cc(N)c(Cl)cc1C(=O)NC1CCN2CCOCC2C1` (stereo in doubt; 14) [listing 1 of 2 here], in the experiment with Rattus norvegicus, the Activity was 0.2 mg/kg. Moreover, the Ratio in experiment [2] was determined as 350.
Consider `COc1cc(N)c(Cl)cc1C(=O)NC1CCN2CCOCC2C1` (stereo in doubt; 14) [listing 2 of 2 here], for which the ED50 in experiment [1] was found to be 70 mg/kg.
Turning to `COc1cc(N)c(Cl)cc1C(=O)NC1CCN2CCOCC2C1` (stereo in doubt; 15) [listing 1 of 2 here], the Activity in the experiment on Rattus norvegicus amounted to 1 mg/kg. The Ratio in experiment [2] is given as 30.
In the case of `COc1cc(N)c(Cl)cc1C(=O)NC1CCN2CCOCC2C1` (stereo in doubt; 15) [listing 2 of 2 here], the 50% effect level in experiment [1] (ED50) was put at a dose of 30 mg/kg.
As for `COc1cc(N)c(Cl)cc1C(=O)NC1CCCN2CCOCC12` (stereo in doubt; 17) [listing 1 of 2 here], the Activity in the experiment on Rattus norvegicus is above 5 mg/kg.
As for `COc1cc(N)c(Cl)cc1C(=O)NC1CCCN2CCOCC12` (stereo in doubt; 17) [listing 2 of 2 here], the 50% effect level in experiment [1] (ED50) was put at a dose of 30 mg/kg.
Turning to `COc1cc(N)c(Cl)cc1C(=O)NC1CCCN2CCOCC12` (stereo in doubt; 18) [listing 1 of 2 here], the Activity in the experiment with Rattus norvegicus was 1 mg/kg.
On to `COc1cc(N)c(Cl)cc1C(=O)NC1CCCN2CCOCC12` (stereo in doubt; 18) [listing 2 of 2 here], for which the ED50 in experiment [1] was above 25 mg/kg.
As to `COc1cc(N)c(Cl)cc1C(=O)NC1CCN2CC[S+]([O-])CC2C1` (stereo in doubt; 21) [listing 1 of 2 here], the Activity in the experiment on Rattus norvegicus stood at 5 mg/kg.
`COc1cc(N)c(Cl)cc1C(=O)NC1CCN2CC[S+]([O-])CC2C1` (stereo in doubt; 21) [listing 2 of 2 here] gave an ED50 in experiment [1] above 10 mg/kg.
As for `COc1cc(N)c(Cl)cc1C(=O)NC1CCN2CC[S+]([O-])CC2C1` (stereo in doubt; 22) [listing 1 of 2 here], the Activity with Rattus norvegicus is 1 mg/kg.
`COc1cc(N)c(Cl)cc1C(=O)NC1CCN2CC[S+]([O-])CC2C1` (stereo in doubt; 22) [listing 2 of 2 here]: the result with Canis familiaris was Active.
Consider `COc1cc(N)c(Cl)cc1C(=O)NC1CCCN2CCSCC12` (stereo in doubt; 23) [listing 1 of 2 here], for which, in the experiment with Rattus norvegicus, the Activity is above 5 mg/kg.
For `COc1cc(N)c(Cl)cc1C(=O)NC1CCCN2CCSCC12` (stereo in doubt; 23) [listing 2 of 2 here], in experiment [1], the median effective dose (ED50) was determined as 5 mg/kg.
`COc1cc(N)c(Cl)cc1C(=O)NC1CCCN2CCSCC12` (stereo in doubt; 24) [listing 1 of 2 here] displayed an Activity in the experiment on Rattus norvegicus of 1 mg/kg. Moreover, in experiment [2], the Ratio was 30.
For the molecule `COc1cc(N)c(Cl)cc1C(=O)NC1CCCN2CCSCC12` (stereo in doubt; 24) [listing 2 of 2 here], in experiment [1], it took a dose of 30 mg/kg to reach the 50% effect level (ED50).
On to `COc1cc(N)c(Cl)cc1C(=O)NC1CCN2C(C)CCCC2C1` (stereo not drawn) [BRL-20627], for which the Activity in the experiment with Rattus norvegicus was 0.5 mg/kg. The same molecule yielded an ED50 in experiment [1] of 25 mg/kg. In addition, the Ratio in experiment [2] is listed as 50.
In the same order, the values of `CCN(CC)CCNC(=O)c1cc(Cl)c(N)cc1OC` [METOCLOPRAMIDE] are 1 mg/kg, 0.8 mg/kg and 0.8.
